This assay concerns vasopressin V2. Description: Vasopressin Antidiuretic (V2) Response in Conscious Rats with Free Access to Water Drinking Before But Not During the Experiment. The assay is classed as in vivo, rat (Sprague-Dawley). The settings on record: N=2. From the text: Vasopressin Antidiuretic (V2) Response in Conscious Rats with Free Access to Water Drinking Before But Not During the Experiment Male or female normotensive Sprague-Dawley rats (Charles River Laboratories, Inc., Kingston, N.Y.) of 400-450 g of body weight were supplied with Laboratory Rodent Feed #5001 (PMI Feeds, Inc., Richmond, Ind.) and water ad libitum. On the day of test, rats were placed individually into metabolic cages equipped with stainless steel screens (to separate the feces from the urine) and funnels for collection of urine. Compounds, vehicle, or reference agent was given at various oral doses. During the test, rats were provided with no water or food. After dosing, urine was collected in graduated cylinders for four hours. Urine volume was measured. Urinary osmolality was determined using a Fiske One-Ten Osmometer (Fiske Associates, Norwood, Mass. 02062). An aliquot of each urine collection was analyzed for Na^+,K^+ and Cl^- using ion specific electrodes a in Beckman E3 (Electrolyte 3) analyzer. The vehicle used for testing compounds was 20% dimethylsulfoxide (DMSO) in 2.5% preboiled starch. Compounds were dissolved in DMSO and then diluted in 2.5% corn starch (final concentration of DMSO was 20%). All rats were orally dosed with this mixture at […], by gavage.

For `O=C(Nc1ccc(C(=O)N2Cc3cccnc3Nc3ccccc32)cn1)c1ccccc1-c1ccccc1` [Example 176, N-[5-(6,11-Dihydropyrido[2,3-b][1,5]benzodiazepin-6(5H)-ylcarbonyl)-2-pyridinyl][1,1'-biphenyl]-2-carboxamide], for the setting “oral 10 mg/kg”, the Osmolality came out at 567 MOsm/kg and the “Urine Volume” value was found to be 12.8 ml/4 hrs.

As for `O=C(Nc1ccc(C(=O)N2Cc3ccccc3Nc3ccccc32)cn1)c1ccccc1-c1ccccc1` [Example 257, N-[5-[(5,11-Dihydro-10H-dibenz[b,e][1,4]diazepin-10-yl)carbonyl]-2-pyridinyl][1,1'-biphenyl]-2-carboxamide], where the note is “oral 10 mg/kg”, the Osmolality is 317 MOsm/kg and the “Urine Volume” value was 22.5 ml/4 hrs.

In turn, `O=C(Nc1ccc(C(=O)N2Cc3cccnc3Nc3ccccc32)c(Cl)c1)c1ccccc1-c1ccccc1` [Example 134, N-[4-(6,11-Dihydropyrido[2,3-b][1,5]benzodiazepin-6(5H)-ylcarbonyl)-3-chlorophenyl][1,1'-biphenyl]-2-carboxamide] gave an Osmolality (oral 1 mg/kg) of 596 MOsm/kg, an Osmolality (oral 3 mg/kg) of 396 MOsm/kg and an Osmolality (oral 10 mg/kg) of 333 MOsm/kg. The “Urine Volume” value came to 18.2 ml/4 hrs (oral 1 mg/kg), 28 ml/4 hrs (oral 3 mg/kg) and 40.5 ml/4 hrs (oral 10 mg/kg).

As for `Cl.O=C(Nc1ccc(C(=O)N2Cc3cccnc3Nc3ccccc32)cc1)c1ccccc1-c1ccccc1` [Example 135, N-[4-(6,11-Dihydropyrido[2,3-b][1,5]benzodiazepin-6(5H)-ylcarbonyl)-phenyl][1,1'-biphenyl]-2-carboxamide, hydrochloride], the Osmolality by setting is: (oral 1 mg/kg) 526 MOsm/kg; (oral 3 mg/kg) 391 MOsm/kg; (oral 10 mg/kg) 284 MOsm/kg. The “Urine Volume” value runs as follows: (oral 1 mg/kg) 19.5 ml/4 hrs; (oral 3 mg/kg) 26.8 ml/4 hrs; (oral 10 mg/kg) 39.5 ml/4 hrs.

On to `O=C(Nc1ccc(C(=O)N2Cc3cccnc3Oc3ccccc32)c(Cl)c1)c1ccccc1-c1ccccc1` [Example 67, N-[4-(Pyrido[2,3-b][1,5]benzoxazepin-6(5H)-ylcarbonyl)-3-chlorophenyl][1,1'-biphenyl]-2-carboxamide], for which, under “oral 10 mg/kg”, the Osmolality is on record as 402 MOsm/kg and the “Urine Volume” value amounted to 21.5 ml/4 hrs.

Take `O=C(Nc1ccc(C(=O)N2Cc3ccccc3Cc3ccccc32)cc1)c1ccccc1-c1ccccc1` [Example 301, N-[4-[(6,11-Dihydro-5H-dibenz[b,e]azepin-5-yl)carbonyl]-phenyl][1,1'-biphenyl]-2-carboxamide]: for the setting “oral 10 mg/kg”, the Osmolality was determined as 363 MOsm/kg and the “Urine Volume” value is given as 41.5 ml/4 hrs.

As for `Cc1ccc(F)cc1C(=O)Nc1ccc(C(=O)N2Cc3ccccc3Nc3ncccc32)cn1` [Example 352, N-[5-[(6,11-Dihydro-5H-pyrido[2,3-b][1,4]benzodiazepin-5-yl)carbonyl]-2-pyridinyl]-5-fluoro-2-methylbenzamide], under “oral 10 mg/kg”, the Osmolality is 779 MOsm/kg and the “Urine Volume” value is on record as 9.3 ml/4 hrs.

Turning to `O=C(Nc1ccc(C(=O)N2Cc3cccnc3Nc3ccccc32)cc1)c1ccccc1-c1ccccc1` [Example 133, N-[4-(6,11-Dihydropyrido[2,3-b][1,5]benzodiazepin-6(5H)-ylcarbonyl)-phenyl][1.1'-biphenyl]-2-carboxamide], for the setting “oral 10 mg/kg”, the Osmolality was found to be 234 MOsm/kg and the “Urine Volume” value stood at 27.5 ml/4 hrs.

In the case of `O=C(Nc1ccc(C(=O)N2CCc3cn[nH]c3-c3ccccc32)cc1)c1ccccc1-c1ccccc1` [Example 396], for the setting “oral 10 mg/kg”, the Osmolality stood at 238 MOsm/kg and the “Urine Volume” value was found to be 21.8 ml/4 hrs.

As for `Cc1ccc(F)cc1C(=O)Nc1ccc(C(=O)N2Cc3cscc3Nc3ccccc32)cn1` [Example 400], for the setting “oral 10 mg/kg”, the Osmolality amounted to 270 MOsm/kg and the “Urine Volume” value worked out at 24.8 ml/4 hrs.

The record behind these values is US5849735A, “Tricyclic benzazepine vasopressin antagonists” (American Cyanamid Company, priority 1995, dated 1998).
